# Source: publication PMC5571359, “Screening the Medicines for Malaria Venture Pathogen Box across Multiple Pathogens Reclassifies Starting Points for Open-Source Drug Discovery” (Antimicrobial Agents and Chemotherapy, 2017)
# Like-named read-outs stand apart in the source and are kept apart here.
# Key:
# [1] = test system: T. cruzi intracellular amastigotes; experiment: Intracellular anti-Trypanosoma cruzi image-based assay (amastigotes); assay type: cell-based; settings: for IC50: Trypanosoma cruzi
# [2] = test system: T. b. brucei 427 bloodstream trypanosomes; experiment: T. b. brucei resazurin viability assay; assay type: cell-based, Trypanosoma brucei brucei
# T. brucei rhodesiense = settings: ref Pbox supporting information, cited from earlier work; for IC50: read-out: T .b. rohdensie Pbox IC50
# HepG2 = settings: cited from earlier work
# T. brucei brucei = settings: ref Pbox supporting information; read-out: T.b. brucei Pbox IC50; cited from earlier work
# [3] = test system: T. cruzi C4 β-galactosidase reporter parasite in MRC 5SV2 host cells; settings: cited from earlier work
# [4] = test system: L. infanium (macrophages); parameters: method as in Pbox supporting information; settings: ref Pbox supporting information; cited from earlier work
# [5] = test system: Plasmodium falciparum 3D7 asexual blood stage; experiment: microbe, parasite or virus in culture
# [6] = test system: NF54-pfs16-LUC-GFP stage IV gametocytes; experiment: Plasmodium falciparum late stage gametocyte (LSG) image-based assay; assay type: cell-based; settings: for IC50: Plasmodium falciparum
# HEK293 cells = experiment: HEK293 resazurin cell cytotoxicity assay; settings: Homo sapiens
# [7] = test system: P. falciparum stage V gametocytes; settings: cited from earlier work; for activity against gametocytes (stage V), PBox supporting information: ref Pbox supporting information; for IC50: stage V gametocytes, read-out: PF stage V GAMS PBox IC50
# P. falciparum ABS = settings: cited from earlier work; for IC50: read-out: Pf 3D7 Pbox IC50
# [8] = test system: L. donovani MHOM/IN/80/DD8 intracellular amastigotes; experiment: Leishmania donovani intracellular amastigote assay in THP-1 cells; assay type: cell-based; settings: Leishmania donovani, THP-1, intracellular amastigotes
# [9] = Trypanosoma brucei; read-out: T b.brucei Discovery Biology IC50
# [10] = HepG2, ref PBox supporting information
# [11] = 7 days exposure, ref PBox supporting information, read-out: T. cruzi IC50 in the PBox supporting information file
# [12] = ref Pbox supporting information, read-out: T. cruzi Pbox IC50
# [13] = 3D7, read-out: Antiplasmodial IC50 (ABS), PBox compounds, P. falciparum 3D7
# [14] = HEK293, read-out: HEK % Inhibition 20uM/IC50 Discovery Biology
# [15] = intracellular amastigotes, read-out: T cruzi Discovery Biology IC50
# [16] = ref PBox supporting information
# [17] = NF54, read-out: Pf Stage IV GAMS Discovery Biology IC50 µM, stage IV gametocytes
# [18] = HEK293, read-out: HEK % Inhibition 20uM/IC50 Discovery Biology (IA)
# [19] = P. falciparum 3D7, ref PBox supporting information
# [20] = some values marked *, read-out: L, donovani Discovery Biology IC50
# [21] = 3D7, read-out: Pf 3D7 Discovery Biology IC50, P. falciparum 3D7 asexual blood stage
# [22] = HEK293, read-out: HEK % Discovery Biology IC50
SMILES,"IC50 [2, 9] [nM]",IC50 (T. brucei rhodesiense) [nM],HepG2 PBox CC20 (HepG2; [10]) [nM],IC50 (T. brucei brucei) [nM],"IC50 [3, 12] [nM]",IC50 [4] [nM],IC50 (HEK293 cells; [14]) [nM],other results
N=C(N)Nc1ccc(-c2ccc(-c3ccc(NC(=N)N)cc3Cl)o2)c(Cl)c1 [MMV688179],5680,230,6800,1030,290,1010,> 20000,"activity against T. cruzi in the Discovery Biology assay [1]: lack of activity; activity against T. cruzi at 8 μM in the Discovery Biology assay [1]: no activity; IC50 [3, 11]: < 1000 nM; IC50 [5, 13]: 0.59 µM; IC50 ([6]; NF54, read-out: Pf Stage IV GAMS Discovery Biology IC50, stage IV gametocytes): 4.1 µM"
CCc1ccccc1-n1c(C)cn2c3c(=O)n(C(C(=O)OC)C(C)C)c(=O)n(C)c3nc12 (stereo not shown) [MMV688550],130,< 130,44300,< 130,990,> 32000,> 20000,"selectivity index (SI) T. cruzi versus HEK293 ([1]; HEK293): > 31; IC50 [1, 15]: 640 nM; selectivity index (SI) T. brucei brucei versus HEK293 ([2]; HEK293): > 154; IC50 [5, 13]: 2.48 µM"
CCCn1c(NC(=O)c2ccc3ccccc3n2)nc2ccccc21 [MMV1030799],–,–,–,–,–,–,–,"IC50 ([5]; 3D7, read-out: Pf 3D7 Discovery Biology IC50 µM, P. falciparum 3D7 asexual blood stage): 2.59 µM; activity against gametocytes (stage V), PBox supporting information [7]: demonstrate activity; IC50 [7, 16]: 560 nM; activity in the Discovery Biology stage IV gametocyte (LSG) assay [6]: demonstrate activity; IC50 [6, 17]: 2.5 µM; IC50 (HEK293 cells; [18]): > 20000 nM; IC50 (P. falciparum ABS; [19]): > 2000 nM"
O=C(Nc1nc(-c2ccccn2)cs1)C1CC1c1ccccc1F (stereo not shown) [MMV1028806],–,–,–,–,–,–,–,"activity against gametocytes (stage V), PBox supporting information [7]: demonstrate activity; IC50 [7, 16]: 520 nM; activity in the Discovery Biology stage IV gametocyte (LSG) assay [6]: demonstrate activity; IC50 [6, 17]: 0.42 µM; IC50 (HEK293 cells; [18]): > 20000 nM; IC50 (P. falciparum ABS; [19]): > 2000 nM"
CNC(=O)c1nn(C)c2c1C(C)(C)Cc1cnc(Nc3ccc(N4CCN(C)CC4)cc3)nc1-2 [MMV676602],170,< 130,–,< 130,1050,850,–,"HepG2 PBox CC20 (HepG2): <260 nM; IC50 [8, 20]: 1430 nM; IC50 [5, 21]: 3.17 µM; IC50 (HEK293 cells; [22]): 1300 nM"
CCCCN(CCCC)c1c(C#N)cc(S(=O)(=O)Nc2ccccc2)cc1C#N [MMV688467],1150,240,11900,260,820,13600,> 20000,"IC50 ([1]; PBox compounds, intracellular amastigotes, 48 h exposure, read-out: IC50 T. cruzi (Discovery Biology)): 3980 nM"
Cc1nn(C)c(C)c1NS(=O)(=O)c1c(Cl)cc(-c2ccnc(N3CCNCC3)c2)cc1Cl [MMV688180],–,< 130,45.4,< 130,850,1010,–,"IC50 ([1]; read-out: T cruzi Discovery Biology IC50): 2910 nM; IC50 ([2]; Trypanosoma brucei, read-out: T b.brucei Discovery Biology IC50): 10 nM; IC50 [5, 21]: 0.63 µM; IC50 (HEK293 cells; [22]): 660 nM"
COc1cccc(CC(=O)N2CCC(n3c(C)nc4ccc(F)cc43)CC2)c1 [MMV020081],–,–,–,–,–,–,–,"IC50 ([5]; 3D7, read-out: Pf 3D7 Discovery Biology IC50 µM, P. falciparum 3D7 asexual blood stage, Discovery Biology): 0.21 µM; activity against gametocytes (stage V), PBox supporting information [7]: demonstrate activity; IC50 ([7]; ref Pathogen Box supporting information): 310 nM; activity in the Discovery Biology stage IV gametocyte (LSG) assay [6]: demonstrate activity; IC50 ([6]; NF54, read-out: Pf Stage IV GAMS Discovery Biology IC50 µM, stage IV gametocytes, Discovery Biology): 0.68 µM; EC50 (P. falciparum ABS; ChEMBL Data, TCMDC, read-out: TCMDC (ref 93) EX50): 910 nM; IC50 (P. falciparum ABS; Pf 3D7, ref Pathogen Box supporting information): 240 nM"
O=C(Nc1ccc2c(c1)B(O)OC2)c1ccccc1C(F)(F)F [MMV652003],110,230,400,150,270,1410,–,"IC50 [8, 20]: 1250 nM; IC50 [5, 13]: 0.92 µM; inhibition at 20 µM (HEK293 cells; [14]): 78%"
Cc1cc(C)nc(-n2nc(C)cc2Nc2ccccc2)n1 [MMV062221],–,–,–,–,–,–,–,"activity against gametocytes (stage V), PBox supporting information [7]: demonstrate activity; IC50 [7, 16]: 220 nM; activity in the Discovery Biology stage IV gametocyte (LSG) assay [6]: demonstrate activity; IC50 [6, 17]: 0.57 µM; IC50 (HEK293 cells; [18]): > 20000 nM; IC50 (P. falciparum ABS; [19]): > 2000 nM"
O=C(Nc1ccc(F)c(-c2nc3cc(-c4ccccc4)cnc3[nH]2)c1)N1CCCC1 [MMV688372],20,< 130,–,< 130,< 130,160,–,"IC50 [1, 15]: 190 nM; IC50 ([8]; PBox compounds, read-out: IC50 L. donovani (Discovery Biology)): 1150 nM; IC50 [8, 20]: 1510 nM; IC50 (HEK293 cells; [22]): 4600 nM"
COc1ccc(S(=O)(=O)Nc2ccc(CN3CCN(C(=O)c4cccc(C#N)c4)CC3)cc2)cc1 [MMV689029],1080,400,–,500,2700,52200,> 20000,"IC50 [1, 15]: 1390 nM; activity against T. brucei rhodesiense (T. brucei rhodesiense): demonstrated activity"
Cc1ccc(-c2nc(CN(Cc3ccccn3)C(C)C)cs2)o1 [MMV1088520],–,–,–,–,–,–,–,"IC50 [7, 16]: 450 nM; IC50 [6, 17]: 0.67 µM; inhibition at 20 µM (HEK293 cells; [14]): 79%; IC50 (P. falciparum ABS; [19]): > 2000 nM"
CC1CCCCN1C(=O)NCCc1coc(-c2ccc(F)cc2)n1 (stereo not shown) [MMV688797],130,110,–,130,480,> 64000,> 20000,"IC50 [1, 15]: 370 nM"
N=C(N)Nc1ccc(-c2ccc(-c3ccc(NC(=N)N)c(Cl)c3)o2)cc1Cl [MMV688271],520,200,13500,600,660,10200,> 20000,"activity against T. cruzi in the Discovery Biology assay [1]: lack of activity; activity against T. cruzi at 8 μM in the Discovery Biology assay [1]: no activity; IC50 [3, 11]: < 1000 nM; IC50 [8, 20]: 3310 nM; IC50 [5, 13]: 1.21 µM"
O=C(NCCc1ccn(-c2ccccc2)n1)C1CCCCC1 [MMV688795],270,< 130,–,150,740,> 64000,> 20000,"IC50 [1, 15]: 930 nM"
Cc1nn2c(=O)c3c([nH]c2c1-c1ccc(Cl)cc1)CCCC3 [MMV688776],1790,140,–,500,720,44000,> 20000,"activity against T. cruzi at 8 μM in the Discovery Biology assay [1]: no activity; IC50 [3, 11]: < 1000 nM"
